According to the CheMixHub viscosity set:

Assay: xn = mol fraction of the nth substance listed

NC=O + O
viscosity [mPa·s]
Details | 101 kPa | 101.33 kPa
293.15 K, x1 = 0.0753 | 1.098 | –
293.15 K, x1 = 0.1519 | 1.195 | –
293.15 K, x1 = 0.2309 | 1.318 | –
293.15 K, x1 = 0.2959 | 1.446 | –
293.15 K, x1 = 0.3852 | 1.603 | –
298.15 K, x1 = 0.00687 | 0.921 | –
298.15 K, x1 = 0.1 | 0.9871 | –
298.15 K, x1 = 0.1001 | 1.044 | –
298.15 K, x1 = 0.1998 | 1.161 | –
298.15 K, x1 = 0.2 | 1.121 | –
298.15 K, x1 = 0.212 | 1.182 | –
298.15 K, x1 = 0.3 | 1.262 | –
298.15 K, x1 = 0.3003 | 1.315 | –
298.15 K, x1 = 0.304 | 1.283 | –
298.15 K, x1 = 0.3989 | 1.463 | –
298.15 K, x1 = 0.4 | 1.43 | –
298.15 K, x1 = 0.4997 | 1.698 | –
298.15 K, x1 = 0.5 | 1.631 | –
298.15 K, x1 = 0.551 | 2.101 | –
298.15 K, x1 = 0.5997 | 1.927 | –
298.15 K, x1 = 0.6 | 1.868 | –
298.15 K, x1 = 0.6029 | 2.275 | –
298.15 K, x1 = 0.692 | 2.142 | –
298.15 K, x1 = 0.7 | 2.138 | –
298.15 K, x1 = 0.8 | 2.471 | –
298.15 K, x1 = 0.8004 | 2.508 | –
298.15 K, x1 = 0.9 | 2.881 | –
298.15 K, x1 = 0.9013 | 2.906 | –
303.15 K, x1 = 0.0964 | – | 0.8965
303.15 K, x1 = 0.1998 | – | 1.015
303.15 K, x1 = 0.2994 | – | 1.15
303.15 K, x1 = 0.3996 | – | 1.298
303.15 K, x1 = 0.4999 | – | 1.474
303.15 K, x1 = 0.5995 | – | 1.662
303.15 K, x1 = 0.6999 | – | 1.878
303.15 K, x1 = 0.8001 | – | 2.139
303.15 K, x1 = 0.9 | – | 2.432
308.15 K, x1 = 0.0964 | – | 0.8135
308.15 K, x1 = 0.1 | 0.8181 | –
308.15 K, x1 = 0.1998 | – | 0.9213
308.15 K, x1 = 0.2 | 0.9244 | –
308.15 K, x1 = 0.2994 | – | 1.047
308.15 K, x1 = 0.3 | 1.047 | –
308.15 K, x1 = 0.3996 | – | 1.182
308.15 K, x1 = 0.4 | 1.183 | –
308.15 K, x1 = 0.4999 | – | 1.34
308.15 K, x1 = 0.5 | 1.342 | –
308.15 K, x1 = 0.5995 | – | 1.506
308.15 K, x1 = 0.6 | 1.523 | –
308.15 K, x1 = 0.6999 | – | 1.697
308.15 K, x1 = 0.7 | 1.731 | –
308.15 K, x1 = 0.8 | 2.002 | –
308.15 K, x1 = 0.8001 | – | 1.926
308.15 K, x1 = 0.9 | 2.307 | 2.18
313.15 K, x1 = 0.0964 | – | 0.7424
313.15 K, x1 = 0.1001 | 0.734 | –
313.15 K, x1 = 0.1998 | 0.835 | 0.8455
313.15 K, x1 = 0.2994 | – | 0.9584
313.15 K, x1 = 0.3003 | 0.949 | –
313.15 K, x1 = 0.3989 | 1.091 | –
313.15 K, x1 = 0.3996 | – | 1.08
313.15 K, x1 = 0.4997 | 1.23 | –
313.15 K, x1 = 0.4999 | – | 1.221
313.15 K, x1 = 0.5995 | – | 1.373
313.15 K, x1 = 0.5997 | 1.402 | –
313.15 K, x1 = 0.692 | 1.545 | –
313.15 K, x1 = 0.6999 | – | 1.543
313.15 K, x1 = 0.8001 | – | 1.746
313.15 K, x1 = 0.8004 | 1.813 | –
313.15 K, x1 = 0.9 | – | 1.967
313.15 K, x1 = 0.9013 | 2.102 | –
318.15 K, x1 = 0.0964 | – | 0.6812
318.15 K, x1 = 0.1 | 0.6761 | –
318.15 K, x1 = 0.1998 | – | 0.7768
318.15 K, x1 = 0.2 | 0.7811 | –
318.15 K, x1 = 0.2994 | – | 0.8815
318.15 K, x1 = 0.3 | 0.8781 | –
318.15 K, x1 = 0.3996 | – | 0.993
318.15 K, x1 = 0.4 | 0.9948 | –
318.15 K, x1 = 0.4999 | – | 1.121
318.15 K, x1 = 0.5 | 1.12 | –
318.15 K, x1 = 0.5995 | – | 1.259
318.15 K, x1 = 0.6 | 1.259 | –
318.15 K, x1 = 0.6999 | – | 1.409
318.15 K, x1 = 0.7 | 1.42 | –
318.15 K, x1 = 0.8 | 1.604 | –
318.15 K, x1 = 0.8001 | – | 1.59
318.15 K, x1 = 0.9 | 1.812 | 1.788
323.15 K, x1 = 0.0964 | – | 0.6275
323.15 K, x1 = 0.1998 | – | 0.7165
323.15 K, x1 = 0.2994 | – | 0.8121
323.15 K, x1 = 0.3996 | – | 0.9187
323.15 K, x1 = 0.4999 | – | 1.032
323.15 K, x1 = 0.5995 | – | 1.158
323.15 K, x1 = 0.6999 | – | 1.292
323.15 K, x1 = 0.8001 | – | 1.457
323.15 K, x1 = 0.9 | – | 1.629
